In patent US11970474B2, “Substituted benzodiazoles and use thereof in therapy” (THOMAS HELLEDAYS STIFTELSE FÖR MEDICINSK FORSKNING, priority 2018, dated 2024):

Assays:
MLE12 cells = assay: Cell viability assay in MLE12 cells (resazurin); type: cell-based, mouse; conditions: Mus musculus, MLE12, 24 h, TNF-α 20 ng/ml, resazurin added after 24 hours culture
How it was run: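 MLE12 cells (7500 cells/well) were seeded onto 11-point duplicate compound dose-responses, with TNF-α (final 20 ng/ml) added after 1 hour at 37° C. After 24 hours, resazurin was added for 6 hours and resorufin fluorescence read (ex544 nm/em595 nm). EC50 values were calculated by curve fitting.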

OGG1 = OGG1 (Homo sapiens (Human), UniProt O15527); assay: In vitro OGG1 activity assay; type: biochemical; conditions: 800 pM OGG1 enzyme, 2 nM human APEX1, 10 nM 8-oxoA:C substrate
OGG1, sequence (O15527 whole entry): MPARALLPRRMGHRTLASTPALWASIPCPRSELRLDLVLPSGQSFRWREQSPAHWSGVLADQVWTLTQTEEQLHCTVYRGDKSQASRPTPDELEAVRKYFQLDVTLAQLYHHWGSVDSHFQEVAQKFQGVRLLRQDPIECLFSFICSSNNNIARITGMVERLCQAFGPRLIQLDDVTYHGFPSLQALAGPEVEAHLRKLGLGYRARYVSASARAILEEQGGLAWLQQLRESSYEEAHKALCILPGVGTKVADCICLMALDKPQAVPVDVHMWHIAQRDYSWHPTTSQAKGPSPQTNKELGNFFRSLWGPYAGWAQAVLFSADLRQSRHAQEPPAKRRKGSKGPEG
How it was run: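 Fluorescence-release assay on a duplex oligonucleotide carrying an OGG1 substrate base beside a fluorophore, quenched from the complementary strand. Excess APEX1 cleaves the abasic site left by base excision, melting the duplex and unquenching the fluorophore. Compounds in DMSO were dispensed before enzyme and substrate, and fluorescein signal was read.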

CCL2 = assay: Mouse CCL2 assay in MLE12 cells; type: cell-based; conditions: Mus musculus, MLE12, 30 h, MLE12 cells; TNF-α 20 ng/ml; supernatant after 30 hours; HTRF; read-out: CCL2 (EC50)
How it was run: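 MLE12 mouse lung epithelial cells (7500/well, DMEM/F12 with 5% FBS) preincubated 1 h with compounds (6-point dose-response, duplicate), then stimulated with TNF-α (final 20 ng/ml) for 30 h at 37 °C. Secreted CCL2 measured by HTRF sandwich immunoassay (Ex330/Em620, 665 nm) against standard curve; IC50 from delta ratios.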

| SMILES | IC50 (OGG1) [µM] | EC50 (CCL2) [µM] | IC50 (MLE12 cells) [µM] |
| --- | --- | --- | --- |
| COc1cc(NC(=O)[C@H]2CC[C@@H](n3c(=O)[nH]c4c(C(=O)N(C)C5CCN(C)C5)cccc43)CC2)ccc1C (stereo partly drawn) [Example 277, N-Methyl-N-(1-methylpyrrolidin-3-yl)-2-oxo-1-[cis-4-[(3-methoxy-4-methylphenyl)carbamoyl]cyclohexyl]-2,3-dihydro-1H-1,3-benzodiazole-4-carboxamide] | 0.0482 | 28.6 | 15 |
| COc1cc(NC(=O)[C@H]2CC[C@@H](n3c(=O)[nH]c4c(NCCN(C)C)cccc43)CC2)ccc1C [Example 280, Cis-4-(4-{[2-(dimethylamino)ethyl]amino}-2-oxo-2,3-dihydro-1H-1,3-benzodiazol-1-yl)-N-(3-methoxy-4-methylphenyl)cyclohexane-1-carboxamide] | 0.0275 | 24.7 | 16.6 |
| COc1cc(NC(=O)[C@H]2CC[C@@H](n3c(=O)[nH]c4c(N5CCC(NC(=O)OC(C)(C)C)C5)cccc43)CC2)ccc1C (stereo partly drawn) [Example 281, tert-Butyl N-(1-{2-oxo-1-[cis-4-[(3-methoxy-4-methylphenyl)carbamoyl]cyclohexyl]-2,3-dihydro-1H-1,3-benzodiazol-4-yl}pyrrolidin-3-yl)carbamate] | 0.149 | 8.83 | 1.83 |
| COc1cc(NC(=O)[C@H]2CC[C@@H](n3c(=O)[nH]c4c(NC(=O)CN(C)C)cccc43)CC2)ccc1C [Example 283, Cis-4-{4-[2-(dimethylamino)acetamido]-2-oxo-2,3-dihydro-1H-1,3-benzodiazol-1-yl}-N-(3-methoxy-4-methylphenyl)cyclohexane-1-carboxamide] | 0.014 | 30.8 | 19.8 |
| COc1cc(NC(=O)[C@H]2CC[C@@H](n3c(=O)[nH]c4c(NC(=O)CN5CCOCC5)cccc43)CC2)ccc1C [Example 285, Cis-N-(3-methoxy-4-methylphenyl)-4-{4-[2-(morpholin-4-yl)acetamido]-2-oxo-2,3-dihydro-1H-1,3-benzodiazol-1-yl}cyclohexane-1-carboxamide] | 0.0451 | > 33 | 15.9 |
| COc1cc(NC(=O)[C@H]2CC[C@@H](n3c(=O)[nH]c4c(NC(=O)[C@@H]5C[C@@H](O)CN5)cccc43)CC2)ccc1C [Example 286, (2S,4R)-4-Hydroxy-N-{2-oxo-1-[cis-4-[(3-methoxy-4-methylphenyl)carbamoyl]cyclohexyl]-2,3-dihydro-1H-1,3-benzodiazol-4-yl}pyrrolidine-2-carboxamide] | 0.0181 | > 33 | 20.3 |
| COc1cc(NC(=O)[C@H]2CC[C@@H](n3c(=O)[nH]c4c(NC(=O)C5CNCCO5)cccc43)CC2)ccc1C (stereo partly drawn) [Example 289, N-{2-Oxo-1-[cis-4-[(3-methoxy-4-methylphenyl)carbamoyl]cyclohexyl]-2,3-dihydro-1H-1,3-benzodiazol-4-yl}morpholine-2-carboxamide] | 0.0517 | 32.1 | 24.5 |
| COc1cc(NC(=O)[C@H]2CC[C@@H](n3c(=O)[nH]c4c(N(C)C5CCN(C)C5)cccc43)CC2)ccc1C (stereo partly drawn) [Example 296, Cis-N-(3-Methoxy-4-methylphenyl)-4-{4-[methyl(1-methylpyrrolidin-3-yl)amino]-2-oxo-2,3-dihydro-1H-1,3-benzodiazol-1-yl}cyclohexane-1-carboxamide] | 0.0286 | 10.5 | 13.5 |
| COc1cc(NC(=O)[C@H]2CC[C@@H](n3c(=O)[nH]c4c(NC(=O)c5cc[nH]n5)cccc43)CC2)ccc1C [Example 299, N-{2-Oxo-1-[cis-4-[(3-methoxy-4-methylphenyl)carbamoyl]cyclohexyl]-2,3-dihydro-1H-1,3-benzodiazol-4-yl}-1H-pyrazole-3-carboxamide] | 0.0272 | 31.7 | 10.2 |
| COc1cc(NC(=O)[C@H]2CC[C@@H](n3c(=O)[nH]c4c(N(C)CCCN)cccc43)CC2)ccc1C [Example 302, Cis-4-{4-[(3-aminopropyl)(methyl)amino]-2-oxo-2,3-dihydro-1H-1,3-benzodiazol-1-yl}-N-(3-methoxy-4-methylphenyl)cyclohexane-1-carboxamide] | 0.0164 | 27.2 | 14.4 |
| COc1cc(NC(=O)[C@H]2CC[C@@H](n3c(=O)[nH]c4c(N(C)CCCNC(=O)OC(C)(C)C)cccc43)CC2)ccc1C [Example 305, tert-Butyl N-{3-[methyl({2-oxo-1-[cis-4-[(3-methoxy-4-methylphenyl)carbamoyl]cyclohexyl]-2,3-dihydro-1H-1,3-benzodiazol-4-yl})amino]propyl}carbamate] | 0.251 | 8.11 | 4.88 |
| COc1cc(NC(=O)[C@H]2CC[C@@H](n3c(=O)[nH]c4c(OCCN(C)C(=O)OC(C)(C)C)cccc43)CC2)ccc1C [Example 308, tert-Butyl N-methyl-N-[2-({2-oxo-1-[cis-4-[(3-methoxy-4-methylphenyl)carbamoyl]cyclohexyl]-2,3-dihydro-1H-1,3-benzodiazol-4-yl}oxy)ethyl]carbamate] | 0.157 | 2.04 | 0.215 |

These reach a lower IC50 (OGG1). Values come first.

| IC50 (OGG1) [µM] | EC50 (CCL2) [µM] | SMILES | IC50 (MLE12 cells) [µM] |
| --- | --- | --- | --- |
| 0.0125 | 32 | COc1cc(NC(=O)[C@H]2CC[C@@H](n3c(=O)[nH]c4c(OC5CCNCC5)cccc43)CC2)ccc1C [Example 307, Cis-N-(3-methoxy-4-methylphenyl)-4-[2-oxo-4-(piperidin-4-yloxy)-2,3-dihydro-1H-1,3-benzodiazol-1-yl]cyclohexane-1-carboxamide] | 28.8 |
| 0.012 | 36.6 | COc1cc(NC(=O)[C@H]2CC[C@@H](n3c(=O)[nH]c4c(N(C)CCN)cccc43)CC2)ccc1C [Example 298, Cis-4-{4-[(2-aminoethyl)(methyl)amino]-2-oxo-2,3-dihydro-1H-1,3-benzodiazol-1-yl}-N-(3-methoxy-4-methylphenyl)cyclohexane-1-carboxamide] | 29.2 |
| 0.0101 | 28.6 | COc1cc(NC(=O)[C@H]2CC[C@@H](n3c(=O)[nH]c4c(N5CCC(N)C5)cccc43)CC2)ccc1C (stereo partly drawn) [Example 282, Cis-4-[4-(3-aminopyrrolidin-1-yl)-2-oxo-2,3-dihydro-1H-1,3-benzodiazol-1-yl]-N-(3-methoxy-4-methylphenyl)cyclohexane-1-carboxamide] | 27.5 |
| 0.0099 | 2.11 | COc1cc(NC(=O)[C@H]2CC[C@@H](n3c(=O)[nH]c4c(NC(=O)c5cc(C)on5)cccc43)CC2)ccc1C [Example 300, 5-Methyl-N-{2-oxo-1-[cis-4-[(3-methoxy-4-methylphenyl)carbamoyl]cyclohexyl]-2,3-dihydro-1H-1,3-benzodiazol-4-yl}-1,2-oxazole-3-carboxamide] | 1.58 |
| 0.00962 | 11.1 | COc1cc(NC(=O)[C@H]2CC[C@@H](n3c(=O)[nH]c4c(N5CC[C@H](N(C)C)C5)cccc43)CC2)ccc1C [Example 295, Cis-4-{4-[(3S)-3-(dimethylamino)pyrrolidin-1-yl]-2-oxo-2,3-dihydro-1H-1,3-benzodiazol-1-yl}-N-(3-methoxy-4-methylphenyl)cyclohexane-1-carboxamide] | 10.4 |
| 0.00807 | 30.8 | CNCCN(C)c1cccc2c1[nH]c(=O)n2[C@H]1CC[C@@H](C(=O)Nc2ccc(C)c(OC)c2)CC1 [Example 297, Cis-N-(3-methoxy-4-methylphenyl)-4-(4-{methyl[2-(methylamino)ethyl]amino}-2-oxo-2,3-dihydro-1H-1,3-benzodiazol-1-yl)cyclohexane-1-carboxamide] | 28.9 |
| 0.00691 | 43 | COc1cc(NC(=O)[C@H]2CC[C@@H](n3c(=O)[nH]c4c(NC(=O)c5cnco5)cccc43)CC2)ccc1C [Example 301, N-{2-Oxo-1-[cis-4-[(3-methoxy-4-methylphenyl)carbamoyl]cyclohexyl]-2,3-dihydro-1H-1,3-benzodiazol-4-yl}-1,3-oxazole-5-carboxamide] | 16.2 |
| 0.0038 | 10.6 | COc1cc(NC(=O)[C@H]2CC[C@@H](n3c(=O)[nH]c4c(OCCN(C)C)cccc43)CC2)ccc1C [Example 304, Cis-4-{4-[2-(dimethylamino)ethoxy]-2-oxo-2,3-dihydro-1H-1,3-benzodiazol-1-yl}-N-(3-methoxy-4-methylphenyl)cyclohexane-1-carboxamide] | 8.27 |
| 0.00326 | 27.8 | CNCCOc1cccc2c1[nH]c(=O)n2[C@H]1CC[C@@H](C(=O)Nc2ccc(C)c(OC)c2)CC1 [Example 309, Cis-N-(3-methoxy-4-methylphenyl)-4-{4-[2-(methylamino)ethoxy]-2-oxo-2,3-dihydro-1H-1,3-benzodiazol-1-yl}cyclohexane-1-carboxamide] | 15.6 |
| 0.00282 | 8.07 | COc1cc(NC(=O)[C@H]2CC[C@@H](n3c(=O)[nH]c4c(OCCCN(C)C)cccc43)CC2)ccc1C [Example 306, Cis-4-{4-[3-(dimethylamino)propoxy]-2-oxo-2,3-dihydro-1H-1,3-benzodiazol-1-yl}-N-(3-methoxy-4-methylphenyl)cyclohexane-1-carboxamide] | 7.15 |
